Like-named read-outs stand apart in the source and are kept apart here.
Columns and labels:
[1] = system: p-ERK in AsPC-1 cells (KRAS G12D mutation); assay: Cell p-ERK assay (HTRF) in AsPC-1 cells; assay type: cell-based, human; conditions: AsPC-1 cells, 3 h compound incubation, HTRF p-ERK T202/Y204, read-out: AsPC-1 p-ERK IC50
Method in brief: (§1)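 AsPC-1 (10000/well) or NCI-H441 (20000/well) cells were seeded overnight, then treated 3 h at 37° C. with 3.16-fold compound dilutions (0.1% DMSO final). Lysates were probed 4 h for phospho-ERK T202/Y204 by HTRF; inhibition versus DMSO and blank wells gave IC50 from four-parameter fits.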

[2] = system: p-ERK in NCI-H441 cells (KRAS G12V mutation); assay: Cell p-ERK assay (HTRF) in NCI-H441 cells; assay type: cell-based, human; conditions: NCI-H441 cells, 3 h compound incubation, HTRF p-ERK T202/Y204, read-out: H441 p-ERK IC50
Method in brief: as §1

Structure (SMILES)	IC50 ([1]; Homo sapiens, ASPC1, 3 h) [nM]	IC50 ([2]; Homo sapiens, NCI-H441, 3 h) [nM]	IC50 [1] [nM]	IC50 [2] [nM]
CCn1c(-c2cc(N3CCN4CC5(CC5)OC[C@@H]4C3)cnc2[C@H](C)OC)c2c3cc(ccc31)-c1csc(n1)C[C@H](NC(=O)[C@H]1[C@H](C)[C@@H]1C)C(=O)N1CCC[C@H](N1)C(=O)OCC1(CC1)C2 (atropisomer, axis not shown; (Ra)) [Compound Z13]	2.24	0.88	–	–
CCn1c(-c2cc(C#C[C@@H]3COCCN3C)cnc2[C@H](C)OC)c2c3cc(ccc31)-c1csc(n1)C[C@H](NC(=O)[C@H]1[C@H](C)[C@@H]1C)C(=O)N1CCC[C@H](N1)C(=O)OCC(C)(C)C2 (atropisomer, axis not shown; (Ra)) [Compound Z672, (1r,2R,3S)—N-((6^3S,4S,Z)-1^1-ethyl-(Ra)-1^2-(2-((S)-1-methoxyethyl)-5-(((R)-4-methylmorpholin-3-yl)ethynyl)pyridin-3-yl)-10,10-dimethyl-5,7-dioxo-6^1,6^2,6^3,6^4,6^5,6^6hexahydro-1^1H-8-oxa-2(4,2)-thiazola-1(5,3)-indola-6(1,3)-pyridazinacycloundecaphane-4-yl)-2,3-dimethylcyclopropane-1-carboxamide]	0.39	0.39	–	–
CO[C@@H](C)c1ncc(C#CCN2CCCOCC2)cc1-c1c2c3cc(ccc3n1CC(F)(F)F)-c1csc(n1)C[C@H](NC(=O)[C@H]1[C@H](C)[C@@H]1C)C(=O)N1CCC[C@H](N1)C(=O)OCC(C)(C)C2 (atropisomer, axis not shown; (Ra)) [Compound Z700, N-((6^3S,4S,Z)-1^1-(2,2,2-trifluoroethyl)-(Ra)-1^2-(2-((S)-1-methoxyethyl)-(5-(3-(1,4-oxazepan-4-yl)prop-1-yn-1-yl))-pyridin-3-yl)-10,10-dimethyl-5,7-dioxo-6^1,6^2,6^3,6^4,6^5,6^6-hexahydro-1^1H-8-oxa-2(4,2)-thiazola-1(5,3)-indola-6(1,3)-pyridazinacycloundecaphane-4-yl)-2,3-dimethylcyclopropane-1-carboxamide]	–	–	0.16	0.2
CCn1c(-c2cc(C#CCN3C4CCC3COC4)cnc2[C@H](C)OC)c2c3cc(ccc31)-c1csc(n1)C[C@H](NC(=O)[C@H]1[C@H](C)[C@@H]1C)C(=O)N1CCC[C@H](N1)C(=O)OCC(C)(C)C2 (atropisomer, axis not shown; (Ra)) [Compound Z711, (1r,2R,3S)—N-((6^3S,4S,Z)—(Ra)-1^2-(5-(3-(3-oxa-8-azabicyclo[3.2.1]octan-8-yl)prop-1-yn-1-yl)-2-((S)-1-methoxyethyl)pyridin-3-yl)-1^1-ethyl-10,10-dimethyl-5,7-dioxo-6^1,6^2,6^3,6^4,6^5,6^6-hexahydro-1^1H-8-oxa-2(4,2)-thiazola-1(5,3)-indola-6(1,3)-pyridazinacycloundecaphane-4-yl)-2,3-dimethylcyclopropane-1-carboxamide]	–	–	0.32	0.23
CCn1c(-c2cc(C#CCN3CCC(C(F)(F)F)CC3)cnc2[C@H](C)OC)c2c3cc(ccc31)-c1csc(n1)C[C@H](NC(=O)[C@H]1[C@H](C)[C@@H]1C)C(=O)N1CCC[C@H](N1)C(=O)OCC(C)(C)C2 (atropisomer, axis not shown; (Ra)) [Compound Z778]	1.53	0.37	–	–
CCn1c(-c2cc(C#CCN(C)CCOC)cnc2[C@H](C)OC)c2c3cc(ccc31)-c1csc(n1)C[C@H](NC(=O)[C@H]1[C@H](C)[C@@H]1C)C(=O)N1CCC[C@H](N1)C(=O)OCC(C)(C)C2 (atropisomer, axis not shown; (Ra)) [Compound Z788]	–	–	0.38	0.19
CCn1c(-c2cc(C#CCN3CCN(C)C(=O)C3)cnc2[C@H](C)OC)c2c3cc(ccc31)-c1csc(n1)C[C@H](NC(=O)[C@H]1[C@H](C)[C@@H]1C)C(=O)N1CCC[C@H](N1)C(=O)OCC(C)(C)C2 (atropisomer, axis not shown; (Ra)) [Compound Z793]	0.19	0.09	–	–
CCn1c(-c2cc(C#CCN3CCCN(C)CC3)cnc2[C@H](C)OC)c2c3cc(ccc31)-c1csc(n1)C[C@H](NC(=O)[C@H]1[C@H](C)[C@@H]1C)C(=O)N1CCC[C@H](N1)C(=O)OCC(C)(C)C2 (atropisomer, axis not shown; (Ra)) [Compound Z802, (1r,2R,3S)—N-((6^3S,4S,Z)-1^2-(5-(3-(4-methyl-1,4-diaza-1-yl)prop-1-yn-1-yl)-(Ra)-2-((S)-1-methoxyethyl)pyridin-3-yl)-1^1-ethyl-10,10-dimethyl-5,7-dioxo-6^1,6^2,6^3,6^4,6^5,6^6-hexahydro-1^1H-8-oxa-2(4,2)-thiazola-1(5,3)-indola-6(1,3)-pyridazinacycloundecaphane-4-yl)-2,3-dimethylcyclopropane-1-carboxamide]	0.2	0.4	–	–
CCn1c(-c2cc(N3CCN(CCS(C)(=O)=O)CC3)cnc2[C@H](C)OC)c2c3cc(ccc31)-c1csc(n1)C[C@H](NC(=O)[C@H]1[C@H](C)[C@@H]1C)C(=O)N1CCC[C@H](N1)C(=O)OCC1(CC1)C2 (single isomer, unassigned) [Compound Z367]	7.29	2.1	–	–
CCO[C@@H](C)c1ncc(N2CCN(CCS(C)(=O)=O)CC2)cc1-c1c2c3cc(ccc3n1CC)-c1csc(n1)C[C@H](NC(=O)[C@H]1[C@H](C)[C@@H]1C)C(=O)N1CCC[C@H](N1)C(=O)OCC1(CC1)C2 (single isomer, unassigned) [Compound Z378-1]	10.6	4.64	–	–
CCn1c(-c2cc(C#CCN3CCCOCC3)cnc2[C@H](C)OC)c2c3cc(ccc31)-c1csc(n1)C[C@H](NC(=O)[C@H]1[C@H](C)[C@@H]1C)C(=O)N1CCC[C@H](N1)C(=O)OCC(C)(C)C2 (single isomer, unassigned) [Compound Z504]	0.16	0.55	–	–
CCn1c(-c2cc(C#CCN3CCC3)cnc2[C@H](C)OC)c2c3cc(ccc31)-c1csc(n1)C[C@H](NC(=O)[C@H]1[C@H](C)[C@@H]1C)C(=O)N1CCC[C@H](N1)C(=O)OCC(C)(C)C2 (single isomer, unassigned) [Compound Z554]	0.67	0.42	–	–
CCn1c(-c2cc(C#CCN3CCCOCC3)cnc2[C@H](C)OC)c2c3cc(ccc31)-c1csc(n1)C[C@H](NC(=O)[C@H]1C[C@@H]1C)C(=O)N1CCC[C@H](N1)C(=O)OCC(C)(C)C2 (single isomer, unassigned) [Compound Z604]	0.51	0.26	–	–

Continued, values first:

IC50 ([1]; Homo sapiens, ASPC1, 3 h) [nM]	IC50 ([2]; Homo sapiens, NCI-H441, 3 h) [nM]	IC50 [1] [nM]	IC50 [2] [nM]	Structure (SMILES)
–	–	0.08	0.08	CCn1c(-c2cc(C#CCN3CCOC[C@H]3C)cnc2[C@H](C)OC)c2c3cc(ccc31)-c1csc(n1)C[C@H](NC(=O)[C@H]1[C@H](C)[C@@H]1C)C(=O)N1CCCC(N1)C(=O)OCC(C)(C)C2 (atropisomer, axis not shown; (Ra)) [Compound Z813]
0.08	0.15	–	–	CCn1c(-c2cc(C#CCN3CCS(=O)(=O)CC3)cnc2[C@H](C)OC)c2c3cc(ccc31)-c1csc(n1)C[C@H](NC(=O)[C@H]1[C@H](C)[C@@H]1C)C(=O)N1CCC[C@H](N1)C(=O)OCC(C)(C)C2 (atropisomer, axis not shown; (Ra)) [Compound Z838, (1r,2R,3S)—N-((6^3S,4S,Z)—(Ra)-1^2-(5-(3-(1,1-dioxidothiomorpholino)prop-1-yn-1-yl)-2-((S)-1-methoxyethyl)pyridin-3-yl)-1^1-ethyl-10,10-dimethyl-5,7-dioxo-6^1,6^2,6^3,6^4,6^5,6^6-hexahydro-1^1H-8-oxa-2(4,2)-thiazola-1(5,3)-indola-6(1,3)-pyridazinacycloundecaphane-4-yl)-2,3-dimethylcyclopropane-1-carboxamide]
2.23	0.74	–	–	CCn1c(-c2cc(C#CCN3CCS(=O)(=O)CC3)cnc2[C@H](C)OC)c2c3cc(ccc31)-c1csc(n1)C[C@H](Nc1nnc3cc(C)ccn13)C(=O)N1CCC[C@H](N1)C(=O)OCC(C)(C)C2 (atropisomer, axis not shown; (Ra)) [Compound Z911, (6^3S,4S,Z)—(Ra)-1^2-(5-(3-(1,1-dioxidothiomorpholino)prop-1-yn-1-yl)-2-((S)-1-methoxyethyl)pyridin-3-yl)-1^1-ethyl-10,10-dimethyl-4-((7-methyl-[1,2,4]triazolo[4,3-a]pyridin-3-yl)amino)-6^1,6^2,6^3,6^4,6^5,6^6-hexahydro-1^1H-8-oxa-2(4,2)-thiazola-1(5,3)-indola-6(1.3)-pyridazinacycloundecaphane-5,7-dione]
1.26	0.68	–	–	CCn1c(-c2cc(C#CCN3CCCOCC3)cnc2[C@H](C)OC)c2c3cc(ccc31)-c1csc(n1)C[C@H](NC(=O)CC1CC1)C(=O)N1CCC[C@H](N1)C(=O)OCC(C)(C)C2 (atropisomer, axis not shown; (Ra)) [Compound Z915]
–	–	0.58	0.21	CCn1c(-c2cc(C#CCN3CCCOCC3)cnc2C(C)C)c2c3cc(ccc31)-c1csc(n1)C[C@H](NC(=O)[C@H]1[C@H](C)[C@@H]1C)C(=O)N1CCC[C@H](N1)C(=O)OCC(C)(C)C2 (atropisomer, axis not shown; (Sa)) [Compound Z811-2, (1r,2R,3S)—N-((6^3S,4S,Z)—(Sa)-1-(5-(3-(1,4-oxazepan-4-yl)prop-1-yn-1-yl)-2-isopropylpyridin-3-yl)-1^1-ethyl-10,10-dimethyl-5,7-dioxo-6^1,6^2,6^3,6^4,6^5,6^6-hexahydro-1^1H-8-oxa-2(4,2)-thiazola-1(5,3)-indola-6(1,3)-pyridazinacycloundecaphane-4-yl)-2,3-dimethylcyclopropane-1-carboxamide]
0.85	1.14	–	–	CCn1c(-c2cc(C#CCN3CCCOCC3)cnc2[C@H](C)OC)c2c3cc(ccc31)-c1csc(n1)C[C@H](NC(=O)CC(C)C)C(=O)N1CCC[C@H](N1)C(=O)OCC(C)(C)C2 (single isomer, unassigned) [Compound Z803]
